The text below walks through data of patent publication US7612065B2, “Inhibitors of c-JUN N-terminal kinases (JNK)” (priority 2007, dated 2009).

Bounds are passed on as bounds.

The target of the test is T1, JNK3 (Homo sapiens, UniProt P53779).
T1 construct: One such construct encodes amino acid residues Ser40-Glu402 of JNK3α1 and is preceded by Met and Gly residues; Met-Gly (initiation methionine plus glycine added for the NcoI site); made in house; host or cells: E. coli BL21 (DE3)
T1 sequence (P53779 40-402): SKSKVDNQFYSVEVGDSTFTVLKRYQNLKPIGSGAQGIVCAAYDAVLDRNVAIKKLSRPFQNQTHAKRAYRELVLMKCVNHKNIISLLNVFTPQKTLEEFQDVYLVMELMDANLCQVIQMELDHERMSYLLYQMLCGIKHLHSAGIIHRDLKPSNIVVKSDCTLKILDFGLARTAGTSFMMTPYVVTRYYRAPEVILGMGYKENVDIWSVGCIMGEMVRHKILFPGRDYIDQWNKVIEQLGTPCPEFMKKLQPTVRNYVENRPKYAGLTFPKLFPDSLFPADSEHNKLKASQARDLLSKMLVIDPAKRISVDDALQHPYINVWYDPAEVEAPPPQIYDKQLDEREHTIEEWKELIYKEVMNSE
Briefly: JNK inhibition assay: spectrophotometric coupled-enzyme assay with activated JNK3. It counts as biochemical. The conditions noted are these: activated JNK3 10 nM, 10 μM ATP, 200 μM EGF receptor peptide, 30° C., competitive inhibition model. The text has this: A BLAST search of the EST database using the published JNK3α1 cDNA as a query identified an EST clone (#632588) that contained the entire coding sequence for human JNK3α1. Polymerase chain reactions (PCR) using pfu polymerase (Strategene) were used to introduce restriction sites into the cDNA for cloning into the pET-15B expression vector at the NcoI and BamHI sites. The protein was expressed in E. coli. […] This truncation corresponds to Ser 2 of JNK1 and JNK2 proteins, and is preceded by a methionine (initiation) and a glycine residue. The glycine residue was added in order to introduce an NcoI site for cloning into the expression vector. In addition, systematic C-terminal truncations were performed by PCR to identify a construct that give rise to diffraction-quality crystals.
5 mg of JNK3 was diluted to 0.5 mg/ml in 50 mM HEPES buffer, pH 7.5, containing 100 mM NaCl, 5 mM DTT, 20 mM MgCl2 and 1 mM ATP. GST-MKK7(DD) was added at a molar ratio of 1:2.5 GST-MKK7:JNK3. After incubation for 30 minutes at 25° C., the reaction mixture was concentrated 5-fold by ultrafiltration in a Centriprep-30 (Amicon, Beverly, Mass.), diluted to 10 ml and an additional 1 mM ATP added. This procedure was repeated three times to remove ADP and replenish ATP. The final addition of ATP was 5 mM and the mixture incubated overnight at 4° C.
The activated JNK3/GST-MKK7(DD) reaction mixture was exchanged into 50 mM HEPES buffer, pH 7.5, containing 5 mM DTT and 5% glycerol (w/v) by dialysis or ultrafiltration. The reaction mixture was adjusted to 1.1 M potassium phosphate, pH 7.5, and purified by hydrophobic interaction chromatography (at 25° C.) using a Rainin Hydropore column. […] Activated JNK3 (i.e. doubly phosphorylated JNK3) was stored at −70° C. at 0.25-1 mg/ml.
Compounds were assayed for the inhibition of JNK3 by a spectrophotometric coupled-enzyme assay. In this assay, a fixed concentration of activated JNK3 (10 nM) was incubated with various concentrations of a potential inhibitor dissolved in DMSO for 10 minutes at 30° C. in a buffer containing 0.1 M HEPES buffer, pH 7.5, containing 10 mM MgCl2, 2.5 mM phosphoenolpyruvate, 200 μM NADH, 150 μg/mL pyruvate kinase, 50 μg/mL lactate dehydrogenase, and 200 μM EGF receptor peptide. […] The reaction was initiated by the addition of 10 μM ATP and the assay plate is inserted into the spectrophotometer's assay plate compartment that was maintained at 30° C. The decrease of absorbance at 340 nm was monitored as a function of time. The rate data as a function of inhibitor concentration was fitted to competitive inhibition kinetic model to determine the Ki.
Broadly, the Ki is the equilibrium dissociation constant of an inhibitor or competing ligand from its target. On to `Cc1cc(C)c2c(c1)/C(=N/O)C(=O)N2Cc1cccc([N+](=O)[O-])c1` [Compound 88], for which the Ki is at least 1000 nM. Then `O=C(Nc1ccc2c(c1)N(Cc1cc(F)cc3c1OCOC3)C(=O)/C2=N\O)c1ccccc1F` [Compound 341], with below 1000 nM. Then `COc1cc(CN2C(=O)/C(=N\O)c3ccc(Br)cc32)cc(OC)c1` [Compound 151], with below 1000 nM; and `Cc1ccc2c(c1)/C(=N/O)C(=O)N2Cc1cccc(C(F)(F)F)c1` [Compound 1], with at least 1000 nM. Regarding `CCCC(=O)Nc1ccc2c(c1)N(Cc1cc(F)cc3c1OCOC3)C(=O)/C2=N\O` [Compound 224], the Ki is below 1000 nM. Then `O=C(Nc1ccc2c(c1)N(Cc1cc(F)cc3c1OCOC3)C(=O)/C2=N\O)c1ccc([N+](=O)[O-])cc1` [Compound 260], with below 1000 nM; and `COc1ccc2c(CN3C(=O)/C(=N/O)c4ccc(CBr)cc43)cc(=O)oc2c1` [Compound 188], with at least 1000 nM; and `Cc1ccccc1CNC(=O)c1ccc2c(c1)N(Cc1cc(F)cc3c1OCOC3)C(=O)/C2=N\O` [Compound 233], with at least 1000 nM. As for `O=C1/C(=N\O)c2cc([N+](=O)[O-])ccc2N1Cc1ccc(Cl)cc1Cl` [Compound 11], the Ki was at least 1000 nM.

On to `O=C1/C(=N\O)c2ccccc2N1Cc1ccc(Cl)cc1` [Compound 10], for which the Ki was at least 1000 nM.

As to `O=C1/C(=N\O)c2cc(Cl)ccc2N1Cc1csc(-c2ccc(Cl)cc2)n1` [Compound 77], the Ki was below 1000 nM. The same measure for `COc1ccccc1-c1nc(CN2C(=O)/C(=N\O)c3cc(C)cc(C)c32)no1` [Compound 90]: at least 1000 nM; for `CC(=O)OC(C(=O)Nc1ccc2c(c1)N(Cc1cc(F)cc3c1OCOC3)C(=O)/C2=N/O)c1ccccc1` (centres unmarked) [Compound 322]: at least 1000 nM. Then `C/C=C/c1cccc2c1/C(=N/O)C(=O)N2Cc1cc(F)cc2c1OCOC2` [Compound 326], with below 1000 nM; and `CC(C)CC(=O)Nc1ccc2c(c1)N(Cc1cc(F)cc3c1OCOC3)C(=O)/C2=N\O` [Compound 345], with below 1000 nM. As to `COc1ccc(C(=O)Nc2ccc3c(c2)N(Cc2cc(F)cc4c2OCOC4)C(=O)/C3=N\O)cc1OC` [Compound 339], the inhibitory constant (Ki) was at least 1000 nM. Consider `N#Cc1ccccc1CN1C(=O)/C(=N\O)c2cc(F)ccc21` [Compound 80], for which the inhibition constant (Ki) was at least 1000 nM. Regarding `O=C1/C(=N\O)c2cc(F)ccc2N1Cc1ccccc1F` [Compound 59], the Ki was at least 1000 nM. Then `CC(=O)Nc1ccc2c(c1)N(Cc1cc(F)cc3c1OCOC3)C(=O)/C2=N\O` [Compound 210], with below 1000 nM; and `O=C(Cc1cccs1)Nc1ccc2c(c1)N(Cc1cc(F)cc3c1OCOC3)C(=O)/C2=N\O` [Compound 219], with below 1000 nM. As for `COc1ccc(CC(=O)Nc2ccc3c(c2)N(Cc2cc(F)cc4c2OCOC4)C(=O)/C3=N/O)cc1OC` [Compound 324], the Ki was at least 1000 nM.

`O=C(Nc1ccc2c(c1)N(Cc1cc(F)cc3c1OCOC3)C(=O)/C2=N\O)c1ccc(F)cc1` [Compound 248]: the Ki was below 1000 nM. Then `CC(=O)NCC(=O)Nc1ccc2c(c1)N(Cc1cc(F)cc3c1OCOC3)C(=O)/C2=N\O` [Compound 348], with at least 1000 nM; and `Cc1ccc(CN2C(=O)/C(=N\O)c3cc(Br)ccc32)cc1` [Compound 26], with at least 1000 nM; and `O=C1/C(=N\O)c2ccccc2N1Cc1ccc(Cl)c(Cl)c1` [Compound 5], with below 1000 nM. `O=C1/C(=N\O)c2cc(OC(F)(F)F)ccc2N1Cc1cccc([N+](=O)[O-])c1` [Compound 106]: the Ki is at least 1000 nM. As to `Cc1ccccc1C(=O)c1ccc2c(c1)/C(=N\O)C(=O)N2Cc1cc(F)cc2c1OCOC2` [Compound 268], the Ki was below 1000 nM. In the case of `O=C1c2ccccc2C(=O)N1CCCN1C(=O)/C(=N/O)c2ccc(CBr)cc21` [Compound 187], the Ki is at least 1000 nM.

Take `O=C1/C(=N\O)c2ccccc2N1Cc1ccc(F)cc1` [Compound 17]: the Ki was at least 1000 nM. Then `COc1ccccc1CNC(=O)c1ccc2c(c1)N(Cc1cc(F)cc3c1OCOC3)C(=O)/C2=N\O` [Compound 231], with at least 1000 nM; and `O=C1/C(=N\O)c2c(CCc3ccccc3)cccc2N1Cc1cc(F)cc2c1OCOC2` [Compound 306], with at least 1000 nM; and `Cc1cc(C)c2c(c1)/C(=N/O)C(=O)N2Cc1cccc(Oc2ccccc2)c1` [Compound 92], with at least 1000 nM. Then `O=C1/C(=N\O)c2cc(Cl)ccc2N1Cc1cc(F)cc2c1OCCO2` [Compound 75], with below 1000 nM; and `Cc1cc2c(c(CN3C(=O)/C(=N\O)c4ccc(C(=O)O)cc43)c1)OCOC2` [Compound 216], with below 1000 nM. Then `O=C1/C(=N\O)c2cc(Cl)ccc2N1Cc1cccc(C(F)(F)F)c1` [Compound 15], with at least 1000 nM; and `CCCNC(=O)c1ccc2c(c1)N(Cc1cc(F)cc3c1OCOC3)C(=O)/C2=N\O` [Compound 293], with at least 1000 nM; and `COc1ccc(-c2ccc3c(c2)N(Cc2cc(F)cc4c2OCOC4)C(=O)/C3=N\O)cc1OC` [Compound 332], with below 1000 nM. Regarding `O=C(O)c1cccc2c1/C(=N/O)C(=O)N2Cc1cc(F)cc2c1OCOC2` [Compound 245], the Ki was at least 1000 nM. With `COc1cc(CN2C(=O)/C(=N\O)c3ccc(OC)cc32)cc(OC)c1` [Compound 155], the Ki was below 1000 nM. Then `O=C1/C(=N\O)c2ccc(C(F)(F)F)cc2N1Cc1cc(F)cc2c1OCOC2` [Compound 165], with below 1000 nM; and `COc1cc(CN2C(=O)/C(=N\O)c3ccc([N+](=O)[O-])cc32)cc(OC)c1` [Compound 198], with at least 1000 nM.

As for `O=C(NCC1CCCO1)c1ccc2c(c1)N(Cc1cc(F)cc3c1OCOC3)C(=O)/C2=N\O` (centres unmarked) [Compound 290], the inhibitory constant (Ki) was at least 1000 nM. Then `Cc1cc(Cl)cc2c1N(Cc1ccccc1C#N)C(=O)/C2=N\O` [Compound 99], with at least 1000 nM; and `COC(=O)CC(=O)Nc1ccc2c(c1)N(Cc1cc(F)cc3c1OCOC3)C(=O)/C2=N\O` [Compound 259], with below 1000 nM.

Consider `Cc1cccc(CN2C(=O)/C(=N\O)c3ccccc32)c1` [Compound 19], for which the Ki is at least 1000 nM. For `CCCCc1cccc2c1/C(=N/O)C(=O)N2Cc1cc(F)cc2c1OCOC2` [Compound 337], the Ki is below 1000 nM. Then `CCC(NC(=O)c1ccc2c(c1)N(Cc1cc(F)cc3c1OCOC3)C(=O)/C2=N\O)c1ccccc1` (centres unmarked) [Compound 243], with at least 1000 nM. The same measure for `CC(=O)Nc1cccc(-c2ccc3c(c2)N(Cc2cc(F)cc4c2OCOC4)C(=O)/C3=N\O)c1` [Compound 317]: below 1000 nM. For the molecule `COc1ccc(CNc2ccc3c(c2)/C(=N/O)C(=O)N3Cc2cc(F)cc3c2OCOC3)cc1O` [Compound 305], the Ki is at least 1000 nM. The same measure for `Cc1cccc(CN2C(=O)/C(=N\O)c3cc(Br)ccc32)c1` [Compound 27]: at least 1000 nM; for `Cc1ccc(CN2C(=O)/C(=N\O)c3cc([N+](=O)[O-])ccc32)cc1` [Compound 33]: at least 1000 nM; for `Cc1cc(Cl)cc2c1N(Cc1cccc(Oc3ccccc3)c1)C(=O)/C2=N\O` [Compound 100]: at least 1000 nM. Then `COc1cccc(C(=O)Nc2ccc3c(c2)/C(=N/O)C(=O)N3Cc2ccccc2)c1` [Compound 120], with at least 1000 nM; and `Nc1cccc(-c2ccc3c(c2)N(Cc2cc(F)cc4c2OCOC4)C(=O)/C3=N\O)c1` [Compound 327], with below 1000 nM; and `Cc1ccc(CN2C(=O)/C(=N\O)c3ccccc32)cc1` [Compound 8], with at least 1000 nM.

`O=C(NCc1ccc(F)cc1)c1ccc2c(c1)N(Cc1cc(F)cc3c1OCOC3)C(=O)/C2=N\O` [Compound 227]: the Ki is below 1000 nM.

As to `O=C1/C(=N\O)c2cc(Br)ccc2N1Cc1cccc(F)c1` [Compound 28], the Ki was at least 1000 nM. As for `O=C1/C(=N\O)c2cc(Cl)ccc2N1Cc1ccccc1` [Compound 45], the Ki is at least 1000 nM. Take `Cc1cc(Cl)cc2c1N(Cc1cccc([N+](=O)[O-])c1)C(=O)/C2=N\O` [Compound 98]: the inhibition constant (Ki) was below 1000 nM.
